The record followed here is patent publication US8105652B2, “Methods of making decomposable thin films of polyelectrolytes and uses thereof” (Massachusetts Institute of Technology, priority 2002, dated 2012).

The data set is described as follows: Release from two-component films with barrier layers. In kind it is physicochemical. The text has this:
In one exemplary embodiment, a range of strategies were employed to control the relative positions of multiple, labeled species within a single film by constructing physical barriers to separate the two components. In one embodiment, films were constructed containing 20-40 base layers of polymer 1/HEP, followed by a set of “barrier” layers including polymer 1/SPS (degradable), PDAC/SPS (non-degradable), thermally cross-linked PAH/PAA, or nothing at all, followed by 20-40 surface layers of polymer 1/DS (FIG. 18). A similar set of films was also constructed, but with the order of the labeled components reversed (e.g., DS base layers and HEP surface layers).
Thus, the use of a single covalently cross-linked PAH/PAA layer was sufficient to separate the two components when deposited onto the surface of the linearly growing polymer 1/DS system, as evidenced by the two-stage release profile. Following a delay of approximately 25 h, the underlying DS was released with a linear profile.
FIG. 27A illustrates the effect of barrier layers on the average release rate from the exemplary two-component systems described above. It is apparent that the average release rate (taken as the average slope of the initial, linear portion of the release curve) of systems including of an underlying layer of linearly-growing DS can be broadly controlled using both multiple layers of a nondegradable system PDAC/SPS or as little as a single layer of cross-linked PAH/PAA. Further, by tuning any of the parameters affecting the degree of cross-linking (e.g., cross-linking time, temperature, number of cross-linked layers), the release rate can be dramatically altered. […] Thus, milder cross-linking conditions (e.g., lower temperatures) may allow for a greater degree of flexibility in tailoring release profiles. Further, aqueous, chemical cross-linking techniques using common biochemical reagents such as carbodiimides may represent a suitable alternative to thermal cross-linking when low temperature fabrication is required. Nevertheless, one skilled in the art will recognize that a range of approaches may be employed to control the release of underlying species, particularly when the underlying species lacks the ability to diffuse throughout the film.
General Considerations. A Harrick PDC-32G plasma cleaner was used to etch silicon substrates (3 cm×2 cm) following rinsing with methanol and deionized water and drying under a stream of dry nitrogen. Layer-by-layer thin films were deposited using an automated Carl Zeiss HMS Series Programmable Slide Stainer. Absorbances from growing films were measured using Fourier Transform Infrared Spectroscopy (FTIR) using a Nicolet Magna IR 550 Series II Spectrometer. Zinc selenide substrates used for transmission FTIR analysis were prepared using the same method employed for silicon substrates, Ellipsometric measurements for film thickness were conducted using a Gaertner Variable Angle Ellipsometer ([…], 70° incident angle) and Gaertner Ellipsometer Measurement Program (GEMP) Version 1.2 software interface. The release of radiolabeled polymers was quantified using a Tri-carb liquid scintillation counter (Model U2200). […] (PAH/PAA) films were thermally cross-linked by incubating films in a Yamoto DVS400 gravity convection oven at 215° C. for indicated time intervals.
Release Studies. For drug release experiments, radiolabeled LbL thin films were first constructed by alternately depositing polymer 1 and the indicated radiolabeled drug(s). Radiolabled deposition solutions containing ^3H-heparin were prepared by combining 1 mL of 50 μCi/mL ^3H-heparin (0.30 mCi/mg, Mn=12500) with 35 mL of 100 mM acetate buffer. Unlabeled heparin (Mn=12500) was added to bring the total concentration of heparin (unlabeled plus labeled) to 2 mg/mL (1.5-2 μCi/mL ^3H). […]

Where [1] appears, read: DS base layer, heparin surface layer, 50 (PDAC/SPS) non-degradable dividing layers.
[2] abbreviates: DS base layer, heparin surface layer, 50 (Poly1/SPS) degradable dividing layers.
The mark [3] stands for this setting: DS base layer, heparin surface layer, separated by a single cross-linked layer of (PAH/PAA).
[4] abbreviates: DS base layer, heparin surface layer, without dividing layers.
[5] abbreviates: heparin base layer, DS surface layer, (PDAC/SPS)50 non-degradable dividing layers.
[6] abbreviates: heparin base layer, DS surface layer, (Poly1/SPS)20 degradable dividing layers.
[7] abbreviates: heparin base layer, DS surface layer, without dividing layers.
Setting [8] is: polymer 1/DS base, single PAH/PAA bilayer cross-linked 20 min at 215° C., polymer 1/HEP surface.

For the substance Dextran sulfate sodium salt [DS], the release pattern result reads like this: under setting [1], “simultaneous release”; under setting [2], “simultaneous release”; under setting [3], “sequential release”; under setting [4], “simultaneous release”; under setting [5], “simultaneous release”; under setting [6], “simultaneous release”. Under setting [7], the release pattern result is “simultaneous release”. Under “cross-linking times greater than 1.5 h at 215° C., or barriers with more than five cross-linked layers (data not shown)”, the “change in release rate” value is given as “one to two order of magnitude decreases”. Also, for the setting “multiple layers of PAH/PAA cross-linked longer than 1.5 h at 215° C., up to 45 days”, the “release of underlying DS” value was “no release of DS was observed”. Under setting [8], the “average rate of DS release, slower than in corresponding films without covalently cross-linked barrier layers” value is on record as “approximately 60%”. In addition, the “delay before release of underlying DS” value under setting [8] was “approximately 25 h”.
For Heparin sodium salt, the release pattern entry by setting is: under setting [1], “simultaneous release”; under setting [2], “simultaneous release”; under setting [3], “sequential release”; under setting [4], “simultaneous release”; under setting [5], “simultaneous release”; under setting [6], “simultaneous release”. Moreover, the release pattern result under setting [7] is “simultaneous release”. Further, the “effect of barrier layer on release of heparin” value (heparin-loaded films coated with a single layer of (PAH/PAA) cross-linked 45 min at 215° C. vs untreated films) was “does not significantly delay”.
